This note sets out measurements from patent US20010056184A1, “Pipecolinic acid derivatives, method of manufacturing the same and therapeutic agents containing these compounds” (priority 2000, published 2001).

The term melting point denotes the temperature, or range, at which the solid turns liquid. The term inhibition denotes the relative decrease from the control value, in per cent. By IC50 is commonly meant the concentration needed to halve the response being measured.

Data set [1] has as its target T1, human fibroblasts derived MMP-1 (type I collagenase) (Homo sapiens, UniProt P03956).
T1 construct: human fibroblasts derived MMP-1 (Yagai Co. Ltd.) as enzyme; purchased Yagai Co. Ltd; host or cells: human fibroblasts
T1 sequence (P03956 100-469): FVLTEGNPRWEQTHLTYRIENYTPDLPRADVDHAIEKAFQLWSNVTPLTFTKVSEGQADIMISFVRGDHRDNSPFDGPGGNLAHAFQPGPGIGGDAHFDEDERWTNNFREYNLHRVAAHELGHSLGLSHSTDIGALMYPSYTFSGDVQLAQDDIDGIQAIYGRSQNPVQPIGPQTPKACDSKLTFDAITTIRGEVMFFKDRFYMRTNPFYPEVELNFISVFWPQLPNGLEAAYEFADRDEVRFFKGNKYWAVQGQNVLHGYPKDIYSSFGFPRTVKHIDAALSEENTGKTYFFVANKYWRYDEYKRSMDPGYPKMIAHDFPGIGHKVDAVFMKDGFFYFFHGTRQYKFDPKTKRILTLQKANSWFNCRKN
Briefly: MMP-1 (type I collagenase) inhibitory activities, fluorogenic substrate enzyme assay. The settings on record: for inhibition at 10 µM: at 10^−5M, NE means no effect, read-out: MMP-1 inhibition percent; for IC50: 37° C., 4 h, substrate 10 μM. The format is biochemical. As for the experimental part: Examination 1: MMP-1 (type I collagenase) inhibitory activities.
Inhibitory activities of MMP-1 (type I collagenase) activities were estimated by enzyme assay using human fibroblasts derived MMP-1 (Yagai Co. Ltd.) as enzyme, and MOCAc-Pro-Leu-Gly-Leu-A2pr(Dnp)-Ala-Arg-NH2 (Peptide Research Center, 3163-v) as substrate. Thus, MMP-1 (0.01 U/ml), test compound (10^−10˜10^−5 M), and the substrate (10 μM) were incubated in 50 mM Tris-HCl buffer (pH 7.4) containing 0.2M NaCl, 10 mM CaCl2, 0.02% NaN3, and 0.05% Brij 35 at 37° C. for 4 h. The reaction was stopped by adding of 4 volumes of sodium acetate buffer (pH 4.0), and the degradation of substrate was calculated by measurement with a fluorescence intensity (λ ex 328 nm, λ em 393 nm). Inhibition of degradation of substrate in the presence of compound was determined by comparison with the degradation percent of substrate in the absence of compound, and concentration of 50% inhibition (IC50 value) was calculated.

In data set [2] the target is T2, MMP-2 (gelatinase A) (Homo sapiens, UniProt P08253).
T2 construct: made in house; host or cells: COS-1 cells (secreted into culture medium)
T2 sequence (P08253 110-660): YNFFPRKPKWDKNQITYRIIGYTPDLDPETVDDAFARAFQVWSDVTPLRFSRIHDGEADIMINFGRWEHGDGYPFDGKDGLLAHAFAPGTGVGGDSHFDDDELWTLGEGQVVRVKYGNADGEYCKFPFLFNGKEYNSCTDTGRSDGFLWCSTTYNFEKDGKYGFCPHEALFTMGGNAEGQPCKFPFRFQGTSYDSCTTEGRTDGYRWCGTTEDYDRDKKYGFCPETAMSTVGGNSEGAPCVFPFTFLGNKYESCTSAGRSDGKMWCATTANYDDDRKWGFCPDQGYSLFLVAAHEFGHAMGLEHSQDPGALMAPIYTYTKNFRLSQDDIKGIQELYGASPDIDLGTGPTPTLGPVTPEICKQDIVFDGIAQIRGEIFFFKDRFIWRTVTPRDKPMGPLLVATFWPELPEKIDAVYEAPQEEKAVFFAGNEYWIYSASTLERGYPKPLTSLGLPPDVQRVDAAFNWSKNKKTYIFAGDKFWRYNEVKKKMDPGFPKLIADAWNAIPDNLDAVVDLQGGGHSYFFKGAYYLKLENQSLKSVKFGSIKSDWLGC
Briefly: MMP-2 (gelatinase A) inhibitory activities, fluorogenic substrate enzyme assay. The settings on record: 42° C., 2 h, substrate 10 μM. The format is biochemical. As for the experimental part: (§1) Examination 2: MMP-2 (gelatinase A) and MMP-9 (gelatinase B) inhibitory activities.
(§2) Pro MMP-2 was obtained from culture medium separated from human pro-MMP-2 cDNA tranfected COS-1 cells. Pro MMP-2 activated by 1 mM (4-aminophenyl) mercury acetic acid and MMP-9, derived human fibrosarcome (Yagai Co. Ltd.), were used as enzyme respectively. Inhibition of both enzyme activities were estimated by enzyme assay using MOCAc-Pro-Leu-Gly-Leu-A2pr(Dnp)-Ala-Arg-NH2 (Peptide Research Center, 3163-v) as substrate. Thus, MMP-2 or MMP-9 (0.01 U/ml), test compound (several concentrations), and the substrate (10 μM) were incubated in 50 mM Tris - HCl buffer (pH 7.4) containing 0.2M NaCl, 10 mM CaCl2, 0.02% NaN3, and 0.05% Brij 35 at 42° C. for 2 h (MMP-2), 3 h (MMP-9) respectively. Inhibition of degradation of substrate in the presence of compound was determined by comparison with the degradation of substrate in the absence of compound, and concentration of 50% inhibition (IC50 value) was calculated.

For data set [3], the target named is T3, MMP-9 (gelatinase B) (Homo sapiens, UniProt P14780).
T3 construct: MMP-9, derived human fibrosarcome (Yagai Co. Ltd.), were used as enzyme respectively; purchased Yagai Co. Ltd; host or cells: human fibrosarcoma
T3 sequence (P14780 94-707): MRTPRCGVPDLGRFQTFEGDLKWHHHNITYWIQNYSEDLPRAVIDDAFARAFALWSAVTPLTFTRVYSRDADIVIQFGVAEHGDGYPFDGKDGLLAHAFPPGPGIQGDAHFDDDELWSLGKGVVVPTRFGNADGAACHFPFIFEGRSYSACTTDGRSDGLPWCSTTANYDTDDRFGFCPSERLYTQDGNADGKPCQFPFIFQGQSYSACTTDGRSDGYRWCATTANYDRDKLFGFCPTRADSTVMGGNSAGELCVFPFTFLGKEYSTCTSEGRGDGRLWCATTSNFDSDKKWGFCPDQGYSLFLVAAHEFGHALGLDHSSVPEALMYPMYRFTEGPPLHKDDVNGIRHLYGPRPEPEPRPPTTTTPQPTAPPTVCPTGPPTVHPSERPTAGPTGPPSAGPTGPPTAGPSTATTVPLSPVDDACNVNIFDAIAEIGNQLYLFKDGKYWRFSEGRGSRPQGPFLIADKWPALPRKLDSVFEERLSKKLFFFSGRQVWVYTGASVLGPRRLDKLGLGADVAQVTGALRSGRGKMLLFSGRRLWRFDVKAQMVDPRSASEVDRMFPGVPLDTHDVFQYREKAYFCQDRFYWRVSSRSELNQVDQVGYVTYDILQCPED
Briefly: MMP-9 (gelatinase B) inhibitory activities, fluorogenic substrate enzyme assay. The format is biochemical. The conditions noted are these: for IC50: 42° C., 3 h, substrate 10 μM. As to the method:
as §1, §2

Data set [4] concerns the target T4, Δ MT1-MMP (Δ MMP-14) (Homo sapiens, UniProt P50281).
T4 construct: ProMT1-MMP cDNA encoded extracellular domain of pro Δ MT1-MMP was tranfected E. coli BL21DE3; made in house; host or cells: E. coli BL21DE3 (inclusion bodies, 8M urea, ion exchange)
Briefly: Δ MT1-MMP (Δ MMP-14) inhibitory activities, fluorogenic substrate enzyme assay. The format is biochemical. The conditions noted are these: 37° C., 30 min, substrate 10 μM; read-out: ΔMMP-14 IC50. An excerpt: Examination 3: Δ MT1-MMP (Δ MMP-14) inhibitory activities.
ProMT1-MMP cDNA encoded extracellular domain of pro Δ MT1-MMP was tranfected E. coli BL21DE3, pro Δ MT1-MMP collected as inclusion body was solved using 8M urea, and it was pulified by ion exchenge column chlomatography. Inhibition of enzyme activities were estimated by enzyme assay using activated Δ MT1-MMP, obtained from activation of pro Δ MT1-MMP by 10 μ/ml tripsine, and MOCAc-Pro-Leu-Gly-Leu-A2pr(Dnp)-Ala-Arg-NH2 (Peptide Research Center, 3163-v) as substrate. Thus, Δ MT1-MMP, test compound (several concentrations), and the substrate (10 μM) were incubated in 50 mM Tris - HCl buffer (pH 7.4) containing 0.2M NaCl, 10 mM CaCl2, 0.02% NaN3, 0.05% Brij 35, and 10 μM leuipeputine at 37° C. for 30 min. The reaction was stopped by adding of 4 volumes of sodium acetate buffer (pH 4.0), and the degradation of substrate was calculated by measurement with a fluorescence intensity (λ ex 328 nm, λ em 393 nm). Inhibition of degradation of substrate in the presence of compound was determined by comparison with the degradation of substrate in the absence of compound, and concentration of 50% inhibition (IC50 value) was calculated.

Each structure is given as a SMILES string.

`CCN[C@@H]1CCN(S(=O)(=O)c2ccc(-c3ccc(OC)cc3)cc2)[C@@H](C(=O)O)C1` [Compound 27, (2R, 4R)-2-Carboxy-4-ethylamino-1-[4-(4-methoxyphenyl)benzenesulfonyl]-piperidine] came in with a melting point greater than 250 °C.

`COc1ccc(C(=O)N[C@@H]2CCN(S(=O)(=O)c3ccc(-c4ccc(OC)cc4)cc3)[C@@H](C(=O)O)C2)cc1` [Compound 4, (2R, 4R)-2-Carboxy-4-(4-methoxybenzoylamino)-1-[4-(4-methoxyphenyl)benzenesulfonyl)-piperidine] came in with a melting point greater than 250 °C.

As for `O=C(N[C@@H]1CCN(S(=O)(=O)c2ccc(-c3ccc(Cl)cc3)cc2)[C@@H](C(=O)O)C1)c1cccc[n+]1[O-]` [Compound 89, (2R, 4R)-2-Carboxy-1-[4-(4-chlorophenyl)benzenesulfonyl]-4-(pyridyl-N-oxide-2-yl) carbonylamino-piperidine], the inhibition at 10 µM in data set [1] came to 14%. Besides, the IC50 in data set [2] came out at 28 nM; in data set [3], 200 nM; in data set [4], 7000 nM.

`COc1ccc(-c2cccc(S(=O)(=O)N3CC[C@@H](NC(=O)CCC(C)C)C[C@@H]3C(=O)NO)c2)cc1` [Compound 52, (2R, 4R)-2-Hydroxyaminocarbonyl-1-[3-(4-methoxyphenyl)benzenesulfonyl]-4-(4-methylpentanoylamino)-piperidine]: the inhibition at 10 µM in data set [1] came to 48.9%. For the same compound, the IC50 in data set [2] was found to be 210 nM; in data set [3] it was 420 nM; in data set [4] it was 79 nM.

As for `CC(C)CCC(=O)N[C@@H]1CCN(S(=O)(=O)c2cccc(-c3ccc(O)cc3)c2)[C@@H](C(=O)NO)C1` [Compound 53, (2R, 4R)-2-Hydroxyaminocarbonyl-1-[3-(4-hydroxyphenyl)benzenesulfonyl]-4-(4-methylpentanoylamino)-piperidine], the inhibition at 10 µM in data set [1] stood at 53%. For the same compound, the IC50 is 960 nM in data set [2], 6900 nM in data set [3] and 2000 nM in data set [4].

Turning to `COc1ccc(C(=O)N[C@@H]2CCN(S(=O)(=O)c3ccc(-c4ccc(OC)cc4)cc3)[C@@H](C(=O)NO)C2)cc1` [Compound 48, (2R, 4R)-2-Hydroxyaminocarbonyl-4-(4-methoxybenzoylamino)-1-[4-(4-methoxyphenyl)benzenesulfonyl]-piperidine], the inhibition at 10 µM in data set [1] was 35.5%. Besides, the IC50 in data set [2] is 0.55 nM; in data set [3] it was 0.4 nM; in data set [4], 310 nM.

`COc1ccc(S(=O)(=O)N2CC[C@H](NC(C)=O)C[C@H]2C(=O)NO)cc1` [Compound 81, (2S, 4S)-4-Acetylamino-2-hydroxyaminocarbonyl-1-(4-methoxybenzenesulfonyl)-piperidine]: the inhibition at 10 µM in data set [1] amounted to 37.3%. The figures for the IC50 in data set [2], in data set [3] and in data set [4] were 220 nM, 390 nM and 89 nM, respectively.

Consider `COc1ccc(S(=O)(=O)N2CC[C@H](NC(=O)CCC(C)C)C[C@H]2C(=O)NO)cc1` [Compound 79, (2S, 4S)-2-Hydroxyaminocarbonyl-1-(4-methoxybenzenesulfonyl)-4-(4-methylpentanoylamino)-piperidine], for which the inhibition at 10 µM came out at 0% in data set [1] and 23.3% in data set [3] (at 10^−5M, read-out: MMP-9 inhibition percent). In addition, the IC50 in data set [2] was determined as 7600 nM; in data set [4], 5000 nM.

Take `CC(C)CCC(=O)N[C@@H]1CCN(S(=O)(=O)c2ccc([N+](=O)[O-])cc2)[C@@H](C(=O)NO)C1` [Compound 77, (2R, 4R)-2-Hydroxyaminocarbonyl-4-(4-methylpentanoylamino)-1-(4-nitrobenzenesulfonyl)-piperidine]: in data set [1], the inhibition at 10 µM was determined as 32.2%. The IC50 in data set [2] came out at 480 nM; in data set [3], 740 nM; in data set [4], 2300 nM.

As to `COc1ccc(C(=O)N[C@@H]2CCN(S(=O)(=O)c3ccc(OC)cc3)[C@@H](C(=O)NO)C2)cc1` [Compound 47, (2R, 4R)-2-Hydroxyaminocarbonyl-1-(4-methoxybenzenesulfonyl)-4-(4-methoxybenzoylamino)-piperidine], the IC50 in data set [1] is 5500 nM; in data set [2], 1.7 nM; in data set [3] it was 1.3 nM; in data set [4], 3.2 nM.

On to `CC(C)CCCN[C@@H]1CCN(S(=O)(=O)c2cccs2)[C@@H](C(=O)NO)C1` [Compound 70, (2R, 4R)-2-Hydroxyaminocarbonyl-4-(4-methylpentylamino)-1-(2-thiophenesulfonyl)-piperidine], for which the IC50 in data set [1] is 5600 nM; in data set [2], 740 nM; in data set [3], 83 nM; in data set [4], 380 nM.
